Reference: ChEMBL document CHEMBL1201862, “PubChem BioAssay data set” (2004)
Active and inactive are the calls of the source.

Legend:
cells [1] = format: functional, cell-based
cells [2] = format: functional, cell-based; remark: listed apart in the source
[3] = target: T1, High affinity choline transporter 1 (Homo sapiens, UniProt Q9GZV3); test: CHT inhibitors, dose response, cell-based, 5-point CRC, membrane potential dye (AID 504840); format: functional
T1 sequence (Q9GZV3 whole entry): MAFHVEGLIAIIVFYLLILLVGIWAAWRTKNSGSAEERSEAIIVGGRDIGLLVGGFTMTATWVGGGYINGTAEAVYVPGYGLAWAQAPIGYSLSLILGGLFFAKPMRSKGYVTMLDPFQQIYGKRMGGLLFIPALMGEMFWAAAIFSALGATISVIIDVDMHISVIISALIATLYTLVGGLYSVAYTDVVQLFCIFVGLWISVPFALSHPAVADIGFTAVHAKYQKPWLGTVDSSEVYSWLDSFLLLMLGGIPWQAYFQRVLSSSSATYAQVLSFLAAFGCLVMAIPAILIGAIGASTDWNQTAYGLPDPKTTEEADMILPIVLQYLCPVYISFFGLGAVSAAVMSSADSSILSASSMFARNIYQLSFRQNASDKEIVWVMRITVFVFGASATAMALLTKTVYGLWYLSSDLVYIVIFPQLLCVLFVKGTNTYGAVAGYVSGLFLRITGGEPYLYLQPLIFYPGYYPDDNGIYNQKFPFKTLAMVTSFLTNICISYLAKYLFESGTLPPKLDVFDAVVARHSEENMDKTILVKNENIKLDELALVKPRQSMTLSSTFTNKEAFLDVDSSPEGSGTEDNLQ

[4] = target: T2, Carboxy-terminal domain RNA polymerase II polypeptide A small phosphatase 1 (Homo sapiens, UniProt Q9GZU7); test: inhibitors of CTDSP1, concentration-response testing, biochemical assay, absorbance-based, actives from ultra-high-throughput screening (AID 540297); format: functional
T2 sequence (Q9GZU7 whole entry): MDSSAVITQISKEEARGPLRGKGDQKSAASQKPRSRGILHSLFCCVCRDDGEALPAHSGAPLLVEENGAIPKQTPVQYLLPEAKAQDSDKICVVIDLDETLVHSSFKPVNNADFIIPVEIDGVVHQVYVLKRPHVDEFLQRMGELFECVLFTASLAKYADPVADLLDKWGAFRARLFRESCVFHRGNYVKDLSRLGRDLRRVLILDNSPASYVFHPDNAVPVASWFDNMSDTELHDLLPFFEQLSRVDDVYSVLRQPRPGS

[5] = microbe, parasite or virus in culture; format: functional; settings: Mycobacterium tuberculosis
[6] = target: T3, Replicative DNA helicase DnaB (Mycobacterium tuberculosis, UniProt P9WMR3); test: DnaB intein splicing inhibitors, dose response, biochemical, cell-free fluorescence (AID 449749); format: functional
T3 sequence (P9WMR3 whole entry): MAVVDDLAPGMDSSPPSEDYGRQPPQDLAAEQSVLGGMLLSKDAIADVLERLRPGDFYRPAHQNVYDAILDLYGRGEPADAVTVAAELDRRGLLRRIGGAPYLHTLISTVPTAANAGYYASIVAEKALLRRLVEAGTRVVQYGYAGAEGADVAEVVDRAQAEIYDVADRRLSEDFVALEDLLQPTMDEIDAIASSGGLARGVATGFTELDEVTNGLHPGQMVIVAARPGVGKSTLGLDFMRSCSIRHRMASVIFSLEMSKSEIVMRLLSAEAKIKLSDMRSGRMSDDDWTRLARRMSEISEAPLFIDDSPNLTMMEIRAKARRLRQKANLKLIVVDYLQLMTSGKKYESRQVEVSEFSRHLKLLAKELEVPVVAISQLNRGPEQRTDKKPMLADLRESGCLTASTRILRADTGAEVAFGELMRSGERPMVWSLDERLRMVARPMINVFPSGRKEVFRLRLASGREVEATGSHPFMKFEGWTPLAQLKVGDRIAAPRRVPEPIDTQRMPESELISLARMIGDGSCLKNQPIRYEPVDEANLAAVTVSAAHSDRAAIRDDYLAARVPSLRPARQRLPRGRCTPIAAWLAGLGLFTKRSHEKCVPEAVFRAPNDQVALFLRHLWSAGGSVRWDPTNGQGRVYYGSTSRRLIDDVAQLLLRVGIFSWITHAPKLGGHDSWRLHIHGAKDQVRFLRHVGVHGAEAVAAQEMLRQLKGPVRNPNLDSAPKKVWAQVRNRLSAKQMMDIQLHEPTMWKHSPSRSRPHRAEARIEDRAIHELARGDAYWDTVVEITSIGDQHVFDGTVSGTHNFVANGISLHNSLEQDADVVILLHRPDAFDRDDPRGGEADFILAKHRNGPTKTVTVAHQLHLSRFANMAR

Protein RecA = target: T4, Protein RecA (Mycobacterium tuberculosis, UniProt P9WHJ3); test: Fluorescence Cell-Free Homogeneous Dose Retest to Identify Inhibitors of RecA-Intein Splicing Activity. [Related pubchem assays (depositor defined):AID2097, AID2223, AID489010, AID492950]; format: functional
T4 sequence (P9WHJ3 whole entry): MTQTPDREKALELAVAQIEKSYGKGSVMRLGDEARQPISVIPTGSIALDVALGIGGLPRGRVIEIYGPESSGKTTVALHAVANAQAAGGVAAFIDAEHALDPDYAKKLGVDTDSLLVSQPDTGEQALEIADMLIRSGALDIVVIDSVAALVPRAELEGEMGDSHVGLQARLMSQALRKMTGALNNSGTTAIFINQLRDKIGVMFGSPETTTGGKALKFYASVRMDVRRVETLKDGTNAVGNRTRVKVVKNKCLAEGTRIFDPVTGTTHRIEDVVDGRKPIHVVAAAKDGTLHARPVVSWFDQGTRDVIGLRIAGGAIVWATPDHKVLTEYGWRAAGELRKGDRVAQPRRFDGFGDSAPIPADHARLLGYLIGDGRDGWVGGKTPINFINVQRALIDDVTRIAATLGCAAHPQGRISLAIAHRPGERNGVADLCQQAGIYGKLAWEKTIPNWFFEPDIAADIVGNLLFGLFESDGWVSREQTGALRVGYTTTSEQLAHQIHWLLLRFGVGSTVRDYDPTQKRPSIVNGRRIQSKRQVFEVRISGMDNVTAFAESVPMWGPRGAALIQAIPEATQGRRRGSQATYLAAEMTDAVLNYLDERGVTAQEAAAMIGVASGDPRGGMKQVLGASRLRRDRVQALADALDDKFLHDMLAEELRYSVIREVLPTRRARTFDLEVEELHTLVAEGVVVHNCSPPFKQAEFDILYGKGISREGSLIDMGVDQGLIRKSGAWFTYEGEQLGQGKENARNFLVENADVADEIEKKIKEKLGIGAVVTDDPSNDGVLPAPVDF

[7] = target: T5, Corticotropin-releasing factor receptor 2/Corticotropin-releasing factor-binding protein (Homo sapiens, UniProt P24387+Q13324); test: activators of CRF receptor 2 with binding protein – uHTS hits, confirmation (AID 602473); format: functional; settings: read-out: EC50_Mean
T5 sequence (Q13324 whole entry): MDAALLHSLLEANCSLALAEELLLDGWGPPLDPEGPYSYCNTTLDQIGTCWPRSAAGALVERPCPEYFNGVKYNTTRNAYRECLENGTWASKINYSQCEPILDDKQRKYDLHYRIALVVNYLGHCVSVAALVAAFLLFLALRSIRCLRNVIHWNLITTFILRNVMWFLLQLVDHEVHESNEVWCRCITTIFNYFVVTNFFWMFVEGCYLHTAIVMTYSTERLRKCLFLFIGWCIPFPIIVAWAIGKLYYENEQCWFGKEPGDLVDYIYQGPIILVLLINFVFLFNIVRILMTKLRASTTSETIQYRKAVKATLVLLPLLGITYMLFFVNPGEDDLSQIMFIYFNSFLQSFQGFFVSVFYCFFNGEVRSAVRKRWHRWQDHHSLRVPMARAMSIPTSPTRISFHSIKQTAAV
T5 sequence (P24387 whole entry): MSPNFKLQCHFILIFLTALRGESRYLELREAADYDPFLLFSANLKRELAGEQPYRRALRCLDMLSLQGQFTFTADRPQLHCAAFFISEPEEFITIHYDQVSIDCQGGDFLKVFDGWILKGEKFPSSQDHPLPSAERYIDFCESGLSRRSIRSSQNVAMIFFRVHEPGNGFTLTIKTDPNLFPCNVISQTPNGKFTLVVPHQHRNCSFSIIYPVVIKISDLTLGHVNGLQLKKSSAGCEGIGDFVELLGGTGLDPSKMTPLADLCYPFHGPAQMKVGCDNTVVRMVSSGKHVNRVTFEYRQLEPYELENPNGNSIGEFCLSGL

[8] = inhibitors of intracellular T. cruzi replication, confirmation, NIH3T3 host cells, beta-gal luminescence (AID 2044); format: functional, cell-based;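 further: intracellular parasites grown in NIH/3T3 mouse fibroblasts as host cells; luminescent beta-galactosidase reporter signal from transgenic T. cruzi replicating inside host cells; inhibitors lower the luminescence signal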
[9] = cytotoxicity toward NIH3T3 fibroblasts, dose response, counter-screen, cell-based, ATP luminescence, mouse fibroblasts (AID 2010); format: functional;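 further: cells exposed to compound for about 90 hours before reading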
Nonstructural protein 1 = Nonstructural protein 1 (Influenza A virus, UniProt Q194T2); format: functional, Influenza A virus (A/California/07/2009(H1N1))
Chain of Nonstructural protein 1 (Q194T2 whole entry): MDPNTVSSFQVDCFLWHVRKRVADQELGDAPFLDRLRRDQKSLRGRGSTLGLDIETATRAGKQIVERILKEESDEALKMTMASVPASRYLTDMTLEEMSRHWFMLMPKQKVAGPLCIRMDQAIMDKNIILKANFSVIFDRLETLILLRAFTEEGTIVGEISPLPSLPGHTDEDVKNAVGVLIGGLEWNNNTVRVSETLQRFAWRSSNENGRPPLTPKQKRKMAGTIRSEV

INS1 = test: beta cell apoptosis inhibitors, cytokine rescue, dose response, luminescence, retest (AID 449756); format: functional, cell-based; settings: Rattus norvegicus;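 further: cell death triggered by IL-1 beta plus TNF-alpha plus IFN-gamma mixture; protective hits raise ATP signal compared with cytokine alone wells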
[10] = Shn3 3'UTR reporter inhibitors, dose response, cell-based, Clone20 osteoblasts, firefly luciferase, cherry-picked (AID 624132); format: functional;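 further: firefly luciferase luminescence from reporter carrying the Shn3 3'UTR in osteoblasts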
[11] = HepG2 cell cytotoxicity, dose response, cytotoxicity control for Shn3 inhibitor project, CellTiter-Glo, cherry-picked (AID 624134); format: functional, cell-based
[12] = control 3'UTR Renilla luciferase suppression, dose response, counter-screen for Shn3 inhibitor project, cell-based, Clone20-Shn3RL, cherry-picked (AID 624133); format: functional
[13] = inhibitors of HIV Env-driven cell fusion, dose response, cherry-pick (AID 652057); format: functional, cell-based
[14] = ZM109 Env clade C HIV-1 fusion inhibitors, dose response, HeLa effector, CEM target cells, luciferase, cherry-pick (AID 652058); format: functional, cell-based
[15] = inhibitors of clade B AD8 Env fusion, dose response, cell-based, cherry-pick (AID 652062); format: functional;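 further: luciferase signal from cell-cell fusion driven by HIV-1 clade B AD8 Env; potency is for inhibitors of fusion seen as a drop in luminescence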

COc1cc(C(=O)N2CCN(C(=O)Cc3ccccc3)CC2)cc(OC)c1OC
EC50 (cells [1]): > 350 µM (not active)
EC50 (cells [2]): > 350 µM (not active)

CC1CCN(S(=O)(=O)c2ccc3c(c2)c(=O)c(C(=O)NC2CCCC2)cn3C)CC1
IC50 [3]: 12 µM (active)

COc1ccc(N2C(=O)[C@@H]3C(c4cccnc4)=NO[C@@H]3C2=O)cc1
EC50 (cells [1]): > 350 µM (not active)
EC50 (cells [2]): > 350 µM (not active)

Cn1nnnc1SCC1=C(C(=O)O)N2C(=O)C(NC(=O)C3CC3c3ccccc3)C2SC1 (configuration not stated)
IC50 [4]: 11.8 µM (active)

Cc1ccc(S(=O)(=O)N2CCCCC2)cc1C(=O)Nc1cccnc1
IC50 [4]: 9.14 µM (active)

CCCCC(O)(CCCC)C(=O)NN(C(=O)CCl)c1ccccc1
CC50 [5]: 12.1 µM (active)
AC50 [6]: 15 µM (active)
EC50 (Protein RecA): 2.45 µM (active)

CCOc1ccc(NC(=O)CN2C(=O)NC(C)(c3ccc(OC(F)F)cc3)C2=O)cc1 (configuration not stated)
EC50 [7]: 13.2 µM (active)

CCCCc1cc(-c2nnc(S)o2)c2ccccc2n1
IC50 [3]: 13.2 µM (active)

CCc1cnccc1CCC(=O)Nc1ccccc1C
EC50 (cells [1]): > 350 µM (not active)
EC50 (cells [2]): 52 µM (active)

COc1ccc2[nH]c(C)c(CCN(Cc3cccs3)C(S)=Nc3ccccc3)c2c1
EC50 [8]: 2.82 µM (active)
EC50 [9]: > 60 µM (not active)
IC50 (Nonstructural protein 1): > 100 µM (active)

COc1cccc2sc3ccc(C#CC4(N)CCCCC4)cc3c(=O)c12
CC50 [5]: 20.1 µM (active)

COc1ccc(NC(=O)NNC(=O)c2ccc(-c3ccccc3)cc2)cc1
IC50 [4]: 4.6 µM (active)

COc1cc2ccccc2cc1C(=O)Nc1ccc(Cc2ccncc2)cc1
EC50 [8]: 1.99 µM (active)
CC50 [5]: 22 µM (active)
EC50 [9]: 8.08 µM (active)

CCOc1cc(C)c(S(=O)(=O)Nc2ccc3c[nH]nc3c2)cc1C
AC50 (INS1): 4.13 µM (active)
AC50 [10]: 4.89 µM (active)
AC50 [11]: 36 µM (active)

Cc1snc(SCC(=O)NN=C(N)COc2cccc(C(F)(F)F)c2)c1C#N
EC50 (cells [1]): > 350 µM (not active)
EC50 (cells [2]): > 350 µM (not active)

CCCCn1c(NCc2ccc3c(c2)OCO3)nc2ccccc21
CC50 [5]: 39.6 µM (active)

Nc1ccc2cccc(O)c2c1
IC50 [4]: 4.61 µM (active)

COc1cc(OC)cc(N(C(=O)CNC(=O)c2cccs2)C(C(=O)NCC2CCCO2)c2ccc(OC)c(OC)c2)c1 (configuration not stated)
EC50 [7]: > 53 µM (inactive)

COc1cccc(CNc2nc(NCC3CC3)nc3ccsc23)c1
AC50 [10]: 5.86 µM (active)
AC50 [11]: 43 µM (active)
AC50 [12]: 11.2 µM (active)

C[C@@H]1CN([C@@H](C)CO)C(=O)c2cccc(NS(=O)(=O)c3ccccc3)c2O[C@@H]1CN(C)Cc1ccc(Cl)c(Cl)c1
AC50 [13]: 2.93 µM (active)
AC50 [14]: 4.27 µM (active)
AC50 [15]: 3.86 µM (active)

O=C(C[C@H]1C[C@@H]2c3cc(NS(=O)(=O)c4ccc(F)cc4)ccc3O[C@@H]2[C@H](CO)O1)NCc1ccc(Cl)cc1
AC50 [13]: 1.72 µM (active)
AC50 [14]: 5.21 µM (active)
AC50 [15]: 4.14 µM (active)

C=C[C@]1(C)C=C2C(=O)[C@@]3(O)OC(=O)[C@@]4(CCCC(C)(C)[C@H]34)[C@@]2(O)CC1 [SPHAEROPSIDIN A]
AC50 [10]: 4.98 µM (active)
AC50 [11]: 12 µM (active)
AC50 [12]: 4.85 µM (active)
